Assay results taken from PMC2120548 (The Journal of Cell Biology, 1995).
Ends that are not written are not given here.

Columns and labels:
[1] = test system: fibronectin type III10 (RGD-containing) fragments; experiment: Panning of phage display peptide libraries on fibronectin fragments; format: binding; conditions: Table I
fibronectin = experiment: Affinity chromatography on *[…]*-Sepharose; format: binding, Human
[2] = test system: III8-11 fibronectin fragment / WDDGWL-phage; experiment: Inhibition of WDDGWL-phage binding to fibronectin fragment by peptides; conditions: soluble competitor, microtiter assay, Fig. 2 b
[3] = WDDGWL-phage attachment to immobilized peptide; format: binding; conditions: peptide coated at 20 μg/ml; mean of triplicate wells
RGD-phage = format: binding; conditions: peptide coated at 20 μg/ml; mean of triplicate wells
[4] = Inhibition of WDDGWL-phage attachment to immobilized peptides; format: binding; conditions: soluble peptide 1 mM; mean of triplicate wells, Fig. 3 b
[5] = Inhibition of RGD-phage attachment to immobilized peptides; format: binding; conditions: soluble peptide 1 mM; mean of triplicate wells, Fig. 3 c
fibrinogen = conditions: aspartic acid residues of DDLW mutated to alanines; cited from earlier work
RGD-mimic OPG2 antibody = conditions: aspartic acid residues of DDLW mutated to alanines; ref Bajt et al. (3); cited from earlier work
[6] = test system: fibronectin and fibronectin fragments containing the RGD sequence (III10); experiment: Phage attachment assay on fibronectin and RGD-containing fibronectin fragments; format: binding, Human
[7] = test system: fibronectin fragment III8,9 (RGD-); experiment: Phage attachment assay on fibronectin fragment III8,9; format: binding; conditions: microtiter wells, OD600, mean of triplicates
[8] = test system: control proteins (BSA and GST); experiment: Phage attachment assay on control proteins; format: binding; conditions: microtiter wells, OD600, mean of triplicates
[9] = test system: fragment encompassing the alternatively spliced cell attachment domain of fibronectin; experiment: Phage attachment assay on alternatively spliced fibronectin fragment; format: binding; conditions: not shown
[10] = Fibronectin on control peptide column; format: binding; conditions: not shown
[11] = test system: MG-63 osteosarcoma cells, fibronectin; experiment: Cell attachment assay on fibronectin; format: cell-based; conditions: MG-63 cells, 30 min, crystal violet OD600, mean of triplicate wells
[12] = test system: MG-63 osteosarcoma cells, vitronectin; experiment: Cell attachment assay on vitronectin; format: cell-based; conditions: MG-63 cells, 30 min, crystal violet OD600, mean of triplicate wells
[13] = test system: MG-63 osteosarcoma cells, type IV collagen; experiment: Cell attachment assay on type IV collagen; format: cell-based; conditions: MG-63 cells, 30 min, crystal violet OD600, mean of triplicate wells
[14] = Inhibition of RGD-phage binding to immobilized beta 3
[15] = test system: beta 3 subunit of purified alpha IIb beta 3; experiment: Immunoblot of purified alpha IIb beta 3; format: binding
[16] = test system: beta 1 and beta 3 integrin subunits in MG-63 total cell extracts; experiment: Immunoblot of MG-63 cell extracts; format: binding; conditions: peptide 100 μM, Fig. 7 b lanes C and D

In the case of PDDLWWL, the “number of phage displaying the same amino acid motif” value (shortened to “number”) ([1]; direct infection of wells) is reported as 3.

For GRGESP, the “elution of fibronectin from *CWDDGWLC*-Sepharose” value (fibronectin; eluting peptide 1 mM, SDS-PAGE) was “not with the GRGESP peptide”.

For “A*CRGDGWMC*G (disulfide) [reference compound]”, the “inhibition of WDDGWL-phage binding” value [2] was “in a dose-dependent manner”, the “binding of WDDGWL-phage to immobilized peptide” value [3] was “WDDGWL-phage can bind to the RGD-containing peptide” and the “binding of RGD-phage to immobilized peptide” value (RGD-phage) was “slight, but consistent, binding”. For the same compound, the “inhibition of WDDGWL-phage binding to immobilized peptide” value [4] was “blocked the WDDGWL-phage binding” and the “inhibition of RGD-phage binding to immobilized peptide” value [5] was “inhibited by both peptides”.

In the case of SWDDGWL, the “number” value ([1]; direct infection of wells) is reported as 6.

In the case of GNRLR, the “number” value ([1]; direct infection of wells) is reported as 1.

With TLRFQRS the “number” value ([1]; EDTA elution) was 1.

For DYWLGF, the “number” value ([1]; direct infection of wells) was 1.

For LVWLLVQFY, the “number” value ([1]; EDTA elution) was 2.

In the case of “mutant alIb[33 integrin: integrin with aspartic acid residues of DDLW mutated to alanines (ref 3)”, the binding to fibrinogen (fibrinogen) is given as “did not appreciably affect the binding” and the “binding to OPG2 antibody” value (RGD-mimic OPG2 antibody) is given as “lost”.

With QRIVLGFT the “number” value ([1]; direct infection of wells) was 1.

For DGWLGF, the “number” value ([1]; direct infection of wells) was 2.

For WDDGWM, the “number” value ([1]; RGD elution) was 4.

With FVLWLV the “number” value ([1]; direct infection of wells) was 1.

With BSA: control protein the “retention on *CWDDGWLC*-Sepharose column” value (fibronectin; proteins other than fibronectin) was “not retained”.

In the case of WDDGLM, the “number” value ([1]; RGD elution) is reported as 7.

With WDDLWWL the “number” value ([1]; RGD elution) was 10.

For “WDDGWL (disulfide (positions not given here))”, the “number” value ([1]; EDTA elution) was 21, the “number” value ([1]; RGD elution) was 131 and the “number” value ([1]; direct infection of wells) was 45. The “divalent cation requirement of phage binding” value [6] was “did not require divalent cations”, the phage binding [7] was “minimal” and the phage binding [8] was “minimal”. The phage binding [9] was “minimal”.

With Fibronectin the “retention on control unrelated peptide column” value [10] was “not retained”.

For “*CVRLNSLAC* (disulfide) [reference compound]”, the “inhibition of cell attachment” value [11] was “no effect on any of the substrates”, the “inhibition of cell attachment” value [12] was “no effect on any of the substrates” and the “inhibition of cell attachment” value [13] was “no effect on any of the substrates”.

With *CWDDGWLC* (disulfide) the “inhibition of WDDGWL-phage binding” value [2] was “in a dose-dependent manner”, the “binding of RGD-phage to immobilized peptide” value (RGD-phage) was “can bind to the *CWDDGWLC*-containing” and the “inhibition of WDDGWL-phage binding to immobilized peptide” value [4] was “blocked the WDDGWL-phage binding”. The “inhibition of RGD-phage binding to immobilized peptide” value [5] was “inhibited by both peptides”, the “binding of fibronectin to peptide-Sepharose” value (fibronectin; fibronectin 2 mg, TBS, SDS-PAGE) was “fibronectin bound to *CWDDGWLC*-Sepharose” and the “inhibition of cell attachment” value [11] was “inhibited cell adhesion”. For the same compound, the “inhibition of cell attachment” value [12] was “inhibited cell adhesion”, the “inhibition of cell attachment” value [13] was “not on collagen” and the “inhibition of RGD-phage binding” value ([14]; soluble peptide, Fig. 6 b) was “blocked”. For the same compound, the “effect of peptide on reactivity of positive control antibodies” value ([15]; Fig. 7 a or b, also MG-63 extracts) was “no ef- fect on the reactivity of the positive control antibodies”, the “reactivity of the anti-*CWDDGWLC* serum after preincubation with peptide” value ([15]; peptide 100 μM, Fig. 7 a lanes C and D) was “abrogated” and the “reactivity of the anti-WDDGWL serum after preincubation with peptide” value [16] was “abrogated”.

In the case of `O=C(O)CN(CCN(CC(=O)O)CC(=O)O)CC(=O)O` [EDTA, reference compound], the “effect of EDTA on RGD-phage binding” value ([14]; peptides coated in the presence of cations, EDTA 10 mM) is reported as “did not block phage binding”.
